Where two headings read alike, the source gives them in different places.
Assays:
Type in all cases: cell-based
[1] = system: HUH7 (human hepatoma cell line); assay: Cell death detection, trypan blue exclusion assay, HUH7; conditions: Huh-7, 168 h, HUH7, 7-day treatment, read-out: Cell Death (%) at Tested Concentration
Protocol: (§1) Biological Test 2. Cell Death Detection Using Trypan Blue Exclusion Assay.
(§2) After drug treatment, cells were harvested by trypsinization with trypsin/EDTA for 10 min at 37° C. As some apoptotic cells detached from the culture substratum into the medium, these cells were also collected by centrifugation of the medium at 1,200 rpm for 5 min. The pooled cell pellets were resuspended and mixed with trypan blue dye. After Trypan blue stain was done, cells were counted by using a light microscope and a hemocytometer. Blue dye-incorporating cells were scored as being dead. Five hundred cells from randomly chosen fields were counted, and the number of dead cells was counted and expressed as a percentage of the total number of cells counted as shown in Tables 2 to 8 below.

[2] = system: LNCaP (human prostate adenocarcinoma cell line); assay: Cell death detection, trypan blue exclusion assay, LNCaP; conditions: read-out: Cell Death (%) at Tested Concentration
Protocol: as §1, §2

[3] = system: HT29 (human colon adenocarcinoma cell line); assay: Cell death detection, trypan blue exclusion assay, HT29; conditions: HT29, 5-day treatment
Protocol: as §1, §2

[4] = system: HUH7 (human hepatoma cell line); assay: Cell death detection, trypan blue exclusion assay, HUH7, in combination with AZD-6244; conditions: HUH7, 6-day treatment; for Cell Death (%) in combination with AZD-6244: compound 0.5 μM
Protocol: as §1, §2

[5] = system: Hep3B (human hepatoma cell line); assay: Cell death detection, trypan blue exclusion assay, Hep3B; conditions: 5-day treatment
Protocol: as §1, §2

[6] = system: HepG2 (human Hepatocellular carcinoma cell line); assay: Cell death detection, trypan blue exclusion assay, HepG2; conditions: HepG2, 5-day treatment
Protocol: as §1, §2

| Compound | cytotoxicity at 1 µM [1] [%] | cytotoxicity at 2.5 µM [1] [%] | cytotoxicity at 5 µM [1] [%] | cytotoxicity at 7.5 µM [1] [%] | cytotoxicity at 10 µM [1] [%] | cytotoxicity at 1 µM ([2]; 72 h, 3-day treatment) [%] | cytotoxicity at 2.5 µM ([2]; 72 h, 3-day treatment) [%] | cytotoxicity at 5 µM ([2]; 72 h, 3-day treatment) [%] | cytotoxicity at 7.5 µM ([2]; 72 h, 3-day treatment) [%] | cytotoxicity at 10 µM ([2]; 72 h, 3-day treatment) [%] | cytotoxicity at 1 µM ([2]; 168 h, 7-day treatment) [%] | cytotoxicity at 2.5 µM ([2]; 168 h, 7-day treatment) [%] | cytotoxicity at 5 µM ([2]; 168 h, 7-day treatment) [%] | cytotoxicity at 7.5 µM ([2]; 168 h, 7-day treatment) [%] | cytotoxicity at 10 µM ([2]; 168 h, 7-day treatment) [%] | further results |
| --- | --- | --- | --- | --- | --- | --- | --- | --- | --- | --- | --- | --- | --- | --- | --- | --- |
| CNC(=O)c1cc(Oc2ccc(NC(=O)Nc3cc(S(F)(F)(F)(F)F)ccc3Cl)cc2)ccn1 [Example 5, 4-[4-({[2-chloro-5-(pentafluoro-λ^6-sulfanyl)phenyl]carbamoyl}amino)phenoxy]-N-methylpyridine-2-carboxamide] | 1.7 | 3.1 | 4.3 | 17.2 | 19.8 | 1 | 1.5 | 1.4 | 2.1 | 7.6 | 1.8 | 1.9 | 2.3 | 4.6 | 14.7 | – |
| CNC(=O)c1cc(Oc2ccc(NC(=O)Nc3cc(S(F)(F)(F)(F)F)ccc3Cl)c(F)c2)ccn1 [Example 6, 4-[4-({[2-chloro-5-(pentafluoro-λ^6-sulfanyl)phenyl]carbamoyl}amino)-3-fluorophenoxy]-N-methylpyridine-2-carboxamide] | 2 | 2.2 | 7.4 | 32.1 | 35.4 | 1.1 | 1.3 | 1.2 | 3.6 | 4.3 | 1.7 | 1.9 | 2.4 | 4.8 | 13.4 | Cell Death (%) at Tested Concentration ([3]; 2.5 uM): 11.7%; Cell Death (%) at Tested Concentration ([3]; 5.0 uM): 13.4%; Cell Death (%) at Tested Concentration ([3]; 10 uM): 22.1%; Cell Death (%) in combination with AZD-6244 ([4]; AZD-6244 0 μM): 2.1%; Cell Death (%) in combination with AZD-6244 ([4]; AZD-6244 0.5 μM): 99%; Cell Death (%) at Tested Concentration ([5]; 0.25 uM): 3.9%; Cell Death (%) at Tested Concentration ([5]; 3.0 uM): 38.4%; Cell Death (%) at Tested Concentration ([5]; 5.0 uM): 89.6%; Cell Death (%) at Tested Concentration ([6]; 0.25 uM): 2.6%; Cell Death (%) at Tested Concentration ([6]; 3.0 uM): 90.7%; Cell Death (%) at Tested Concentration ([6]; 5.0 uM): 99% |
| Cn1cnc2c(F)c(Nc3ccc(Br)cc3Cl)c(C(=O)NOCCO)cc21 [AZD-6244, reference compound] | – | – | – | – | – | – | – | – | – | – | – | – | – | – | – | Cell Death (%), AZD-6244 alone ([4]; AZD-6244 0.5 μM, no other compound (0)): 2.3% |

Reference: patent US8937088B2, “Ureas for the treatment and prevention of cancer” (Astar Biotech LLC, priority 2011, dated 2015)
